Broadly, the IC50 is the concentration at which inhibition is half-maximal.

The target of the assay is T1, BLK (Homo sapiens, UniProt P51451).
T1 construct: endogenous in cells; host or cells: 1:1 mix of Jurkat and Ramos cell lysates
In words: Radiometric protein kinase assay (33PanQinase, ProQinase), BLK. It counts as biochemical. The settings on record: ATP at apparent Km; read-out: BLK enzyme assay IC50. How it is done: A radiometric protein kinase assay (^33PanQinase® Activity Assay; ProQinase GmbH, Freiburg, Germany) was used for measuring the kinase activity of the protein kinases BLK, BTK, ITK and JAK3. All kinase assays were performed in 96-well FlashPlates™ from PerkinElmer (Boston, Mass., USA) in a 50 μl reaction volume. The reaction cocktail was pipetted in four steps in the following order: • 20 μl of assay buffer (standard buffer) • 5 μl of ATP solution (in H2O) • 5 μl of test compound (in 10% DMSO) • 10 μl of substrate/10 μl of enzyme solution (premixed)
The reaction cocktails were incubated at 30° C. for 60 minutes. The reaction was stopped with 50 μl of 2% (v/v) H3PO4, plates were aspirated and washed two times with 200 μl 0.9% (w/v) NaCl. Incorporation of ^33Pi was determined with a microplate scintillation counter (Microbeta, Wallac). All assays were performed with a BeckmanCoulter/SAGIAN™ Core System.

T1 sequence (P51451 whole entry): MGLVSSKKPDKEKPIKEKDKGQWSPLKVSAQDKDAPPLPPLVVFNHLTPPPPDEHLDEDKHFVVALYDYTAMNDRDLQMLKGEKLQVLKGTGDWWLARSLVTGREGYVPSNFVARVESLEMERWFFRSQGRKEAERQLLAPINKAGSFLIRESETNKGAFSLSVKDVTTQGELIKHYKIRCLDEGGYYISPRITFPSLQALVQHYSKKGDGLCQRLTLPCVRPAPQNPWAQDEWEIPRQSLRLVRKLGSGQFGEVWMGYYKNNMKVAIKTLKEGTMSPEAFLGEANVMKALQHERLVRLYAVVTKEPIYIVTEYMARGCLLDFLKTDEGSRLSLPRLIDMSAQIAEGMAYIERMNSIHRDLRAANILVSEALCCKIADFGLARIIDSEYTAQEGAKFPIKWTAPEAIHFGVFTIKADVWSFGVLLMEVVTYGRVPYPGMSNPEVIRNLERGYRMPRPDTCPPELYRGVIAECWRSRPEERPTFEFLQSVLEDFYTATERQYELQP

For the molecule `C=CC(=O)Nc1cc(Cn2ncc3cnc(Nc4cnn(C)c4)nc32)ccc1F` [Example 2, […]], the IC50 is 2000 nM.

The values above are taken from US20140323504A1, “Pyrazolo[4,3-c]Pyridine Derivatives As Kinase Inhibitors” (Cellzome Limited, priority 2011, published 2014).
